Results on seven compounds are retold here after patent US8741914B2, “Antiviral compounds and uses thereof” (priority 2009, dated 2014).

For assay [1], the target named is T1, HCV polymerase 1A (Δ21 NS5B, H77) (Hepatitis C virus genotype 1a, UniProt P27958).
T1 construct: 20 to 50 nM Δ21 NS5B
The assay can be described thus: HCV Polymerase Inhibition Assay (1a). Format: biochemical. The protocol:
(§1) The reaction was initiated by the addition of 20 μM CTP, 20 μM ATP, 1 μM ^3H-UTP (10 mCi/μmol), 5 nM template RNA and 0.1 U/μL RNase inhibitor (RNasin, Promega), and allowed to proceed for 2 to 4 hours at room temperature. Reaction volume was 50 μL. The reaction was terminated by the addition of 1 volume of 4 mM spermine in 10 mM Tris-Cl pH 8.0, 1 mM EDTA. After incubation for at least 15 minutes at room temperature, the precipitated RNA was captured by filtering through a GF/B filter (Millipore) in a 96 well format. The filter plate was washed three times with 200 μL each of 2 mM spermine, 10 mM Tris-Cl pH 8.0, 1 mM EDTA, and 2 times with ethanol. After air-drying, 30 μL of Microscint 20 scintillation cocktail (Packard) was added to each well, and the retained cpm were determined by scintillation counting. […] Retained cpm were plotted vs. inhibitor concentration and fit to equation 1 using non-linear regression (ref. 1) to obtain the IC50 values: Retained cpm=A[sqrt{(IC50+It−Et)^2+4*IC50*Et}−(IC50+It−Et)] (equation 1) where A=Vmax[S]/2(Km+[S]); It=total inhibitor concentration and Et=total active concentration of enzyme.
(§2) Ref. Morrison, J. F. and S. R. Stone. 1985. Approaches to the study and analysis of the inhibition of enzymes by slow- and tight-binding inhibitors. Comments Mol. Cell. Biophys. 2: 347-368.
(§3) The sequence of the template RNA used was: 5′-[…] […] […] […] […] […] […] […] […] […] […] […] […] […] […] […] […]-3′ (SEQ ID NO: 1).

Assay [2] deals with genotype 1b-Con1 subgenomic replicon cell line. The assay can be described thus: HCV Polymerase Replicon Assay (genotype 1b-Con1). The following applies: Hepatitis C virus, 72 h; 1b-Con1 replicon, luciferase reporter, 5% FBS, three days. Format: cell-based.
Assay [3] deals with genotype 1a-H77 subgenomic replicon cell line. The assay can be described thus: HCV Polymerase Replicon Assay (genotype 1a-H77). The assay is classed as cell-based. Conditions: Hepatitis C virus, 72 h; 1a-H77 replicon, luciferase reporter, 5% FBS, three days. (Replicon systems follow genome replication, usually without infectious particles.)
The target of assay [4] is T2, HCV polymerase 1B (Δ21 NS5B, BK) (Hepatitis C virus genotype 1b, UniProt P26663).
T2 construct: 20 to 50 nM Δ21 NS5B
The assay can be described thus: HCV Polymerase Inhibition Assay (1b). The assay is classed as biochemical. The protocol:
as §1, §2, §3

Usually IC50 stands for the point on the concentration scale where inhibition reaches its midpoint. Low readings indicate greater potency, high ones weaker potency. Broadly, the EC50 is the concentration giving half of the maximal effect. A high value points to a need for much substance.

T2 sequence (P26663 2420-2989, stated change not applied): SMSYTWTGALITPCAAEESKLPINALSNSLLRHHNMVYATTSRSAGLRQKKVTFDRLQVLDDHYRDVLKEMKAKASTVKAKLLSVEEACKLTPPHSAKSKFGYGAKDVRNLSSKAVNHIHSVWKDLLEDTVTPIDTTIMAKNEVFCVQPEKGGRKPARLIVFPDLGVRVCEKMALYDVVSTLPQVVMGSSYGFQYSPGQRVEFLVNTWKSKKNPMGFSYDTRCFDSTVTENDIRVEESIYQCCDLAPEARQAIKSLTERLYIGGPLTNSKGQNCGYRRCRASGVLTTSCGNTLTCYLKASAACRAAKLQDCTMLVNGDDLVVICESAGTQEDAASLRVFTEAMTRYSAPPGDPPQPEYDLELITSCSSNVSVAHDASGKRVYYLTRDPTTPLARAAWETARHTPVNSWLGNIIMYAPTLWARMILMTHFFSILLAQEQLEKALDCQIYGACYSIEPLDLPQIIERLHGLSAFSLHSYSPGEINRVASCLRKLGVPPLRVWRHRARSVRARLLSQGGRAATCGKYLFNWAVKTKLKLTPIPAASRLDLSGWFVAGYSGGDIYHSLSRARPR
T1 sequence (P27958 2421-2990, stated change not applied): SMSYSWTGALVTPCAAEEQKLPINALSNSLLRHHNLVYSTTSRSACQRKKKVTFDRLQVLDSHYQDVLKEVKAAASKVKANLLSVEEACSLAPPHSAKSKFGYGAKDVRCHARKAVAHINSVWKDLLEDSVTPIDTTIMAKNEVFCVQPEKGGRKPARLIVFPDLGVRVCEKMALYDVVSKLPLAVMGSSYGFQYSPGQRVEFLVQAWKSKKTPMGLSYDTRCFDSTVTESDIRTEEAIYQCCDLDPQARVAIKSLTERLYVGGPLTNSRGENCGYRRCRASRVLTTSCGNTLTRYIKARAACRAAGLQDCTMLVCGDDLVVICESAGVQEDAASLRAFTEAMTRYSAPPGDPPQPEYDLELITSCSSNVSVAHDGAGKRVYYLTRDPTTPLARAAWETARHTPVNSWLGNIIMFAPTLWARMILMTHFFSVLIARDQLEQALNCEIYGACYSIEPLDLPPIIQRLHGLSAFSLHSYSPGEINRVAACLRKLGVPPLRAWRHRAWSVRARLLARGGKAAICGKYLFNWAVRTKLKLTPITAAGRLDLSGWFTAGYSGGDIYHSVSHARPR

Consider `CC(C)(C)c1cc(N2CCC(=O)NC2=O)cc2c(Nc3ccc(NS(C)(=O)=O)cc3)ncnc12` [Compound 6, N-(4-(8-tert-butyl-6-(2,4-dioxotetrahydropyrimidin-1(2H)-yl)quinazolin-4-ylamino)phenyl)methanesulfonamide], for which the IC50 in assay [1] and in assay [4] was 10 to 100 nM each time. Moreover, the EC50 in assay [2] and in assay [3] was 100 to 1000 nM in each case.
Consider `COc1c(C(C)(C)C)cc(-n2ccc(=O)[nH]c2=O)c2ccc(-c3ccc(NS(C)(=O)=O)cc3)nc12` [Compound 2, N-(4-(7-tert-butyl-5-(2,4-dioxo-3,4-dihydropyrimidin-1(2H)-yl)-8-methoxyquinolin-2-yl)phenyl)methanesulfonamide], for which the IC50 in assay [1] and in assay [4] was over 1000 nM each time.
For the compound `CC1(C)COc2c(-c3ccc4cc(NS(C)(=O)=O)ccc4c3)cc(-n3ccc(=O)[nH]c3=O)cc21` [Compound 3, N-(6-(5-(2,4-dioxo-3,4-dihydropyrimidin-1(2H)-yl)-3,3-dimethyl-2,3-dihydrobenzofuran-7-yl)naphthalen-2-yl)methanesulfonamide], the IC50 in assay [1] is under 10 nM; in assay [4] it was 10 to 100 nM. The values for the EC50 in assay [2] and in assay [3] were 10 to 100 nM and 100 to 1000 nM, respectively.
On to `CC(C)(C)c1cc(-n2ccc(=O)[nH]c2=O)cc2c(Nc3cc(CNS(C)(=O)=O)cs3)ncnc12` [Compound 7, N-((5-(8-tert-butyl-6-(2,4-dioxo-3,4-dihydropyrimidin-1(2H)-yl)quinazolin-4-ylamino)thiophen-3-yl)methyl)methanesulfonamide], for which the IC50 in assay [1] was 10 to 100 nM; in assay [4], under 10 nM. For the same compound, the EC50 is 100 to 1000 nM in assay [2] and over 1000 nM in assay [3].
Regarding `CC1(C)CC(=O)Oc2c1cc(N1CCC(=O)NC1=O)c1ccccc21` [Compound 4, 1-(4,4-dimethyl-2-oxo-3,4-dihydro-2H-benzo[h]chromen-6-yl)dihydropyrimidine-2,4(1H,3H)-dione], the results for the half-inhibitory concentration (IC50) in assay [1] and in assay [4] were over 1000 nM and 100 to 1000 nM, respectively.
Take `COc1c(C(C)(C)C)cc(-n2ccc(=O)[nH]c2=O)c2cccnc12` [Compound 1, 1-(7-tert-butyl-8-methoxyquinolin-5-yl)pyrimidine-2,4(1H,3H)-dione]: the IC50 in assay [1] and in assay [4] was 10 to 100 nM in each case. The values for the EC50 in assay [2] and in assay [3] were at most 10 nM and 100 to 1000 nM, respectively.
Turning to `CC(C)(C)c1cc(-n2ccc(=O)[nH]c2=O)cc2c(Nc3ccc(NS(C)(=O)=O)cc3)ncnc12` [Compound 5, N-(4-(8-tert-butyl-6-(2,4-dioxo-3,4-dihydropyrimidin-1(2H)-yl)quinazolin-4-ylamino)phenyl)methanesulfonamide], the IC50 in assay [1] and in assay [4] was 10 to 100 nM each time. Also, the EC50 in assay [2] was 100 to 1000 nM; in assay [3], over 1000 nM.
